Data from patent US20080004290A1, “Anti-Cancer Agents” (THE UNIVERSITY OF QUEENSLAND, priority 2003, published 2008).
Read-outs that look alike come from different tables or passages of the source.

What was measured:
[1] = tested on: NFF, neonatal foreskin fibroblasts; assay: Cell survival assay (clonogenic survival, SRB), normal cells; assay type: cell-based, human; details: SRB
Protocol: (§1) The cytotoxicities of the compounds of the invention were determined by clonogenic survival of human cancer cells (MM96L, melanoma) and human normal cells (NFF, neonatal foreskin fibroblasts). Cells were incubated with the compounds at various concentrations of compound (0.01-10 μg/mL) for 24 hours, washed, and then grown for a further four days in the absence of hydroxamic acid before determining cell survival by cell count. The final readout involved staining with sulforhodamine B (SRB), a cost-effective method amenable to automation and high throughput analysis. At the technical level, “cell sensitivity” is often inferred from short term (1-2 day) observations such as apoptosis, which may not be a satisfactory model of clonogenic survival.
(§2) Cell Lines and Culture Medium. All cell lines used in this study have been described previously (Parsons et al., 1986; Todaro et al., 1980; Glenn et al., 2004). All cell lines were cultured in 10% heat-inactivated foetal calf serum (CSL, Australia) in RPMI 1640 medium supplemented with 100 U/mL penicillin, 100 μg/mL streptomycin, and 3 mM HEPES at 5% CO2, 99% humidity at 37° C. Primary human fibroblasts were obtained from neonatal foreskins and cultured in the above medium. Routine mycoplasma tests were performed using Hoechst stain^i and were always negative.
(§3) Cell Survival Assay. Cells were plated into 96-well microtitre plates at 5×10^3 cells/well, and allowed to adhere overnight. Test compounds were added to culture medium at the indicated concentrations, and plates incubated in the above conditions for 24 hours. Following this incubation period, compounds and media were removed, and replaced with fresh culture medium. Cells were then grown for a further 72 hours before assay using sulforhodamine B (SRB; Sigma, St. Louis, Mo.) as previously described. Briefly, the culture medium was removed from the 96-well microtitre plates and the plates washed twice with phosphate buffered saline (PBS), before the cells were fixed with methylated spirits for 15 minutes. The plates were then rinsed with tap water and the fixed cells stained with 50 μL/well of SRB solution (0.4% sulforhodamine B (w/v) in 1% (v/v) acetic acid) over a period of 1 hour. The SRB solution was then removed from the wells and the plates rapidly washed two times with 1% (v/v) acetic acid. Protein bound dye was then solubilised with the addition of 100 μL of 10 mM unbuffered Tris, and incubated for 15 min at 25° C. Plates were then read at 564 nm on a VERSA max tunable microplate reader (Molecular Devices, Sunnyvale, Calif.).

MM96L melanoma cells = assay: Cell survival assay (clonogenic survival, SRB); assay type: cell-based, human; details: for SI (Selectivity Index = IC50 (NFF)/IC50 (MM96L)): NFF vs MM96L
Protocol: as §1, §2, §3

[2] = Homo sapiens, Fibroblast, NFF normal fibroblasts, 24 h with compound, further 72 h growth, read-out: IC50 (uM) NFF
[3] = Homo sapiens, MM96L, MM96L melanoma, 24 h with compound, further 72 h growth, SRB, read-out: IC50 (uM) MM96L
[4] = Table 5, 24 hours with compound, further growth, read-out: IC50 NFF
[5] = Table 5, 24 hours with compound, further growth, SRB, read-out: IC50 MM96L
[6] = Table 5, Selectivity Index = IC50 (NFF)/IC50 (MM96L)
[7] = Homo sapiens, Fibroblast, 24 h, Table 6, 24 hours with compound, further growth, read-out: IC50 (μM) NFF
[8] = Homo sapiens, MM96L, 24 h, Table 6, 24 hours with compound, further growth, SRB, read-out: IC50 (μM) MM96L
[9] = Table 6, IC50 (NFF)/IC50 (MM96L)
[10] = Table 6, 24 hours with compound, further growth, read-out: IC50 (μM) NFF
[11] = Table 6, 24 hours with compound, further growth, SRB, read-out: IC50 (μM) MM96L
[12] = Homo sapiens, Fibroblast, 24 h, Table 7, 24 hours with compound, further growth, read-out: IC50 (μM) NFF
[13] = Homo sapiens, MM96L, 24 h, Table 7, 24 hours with compound, further growth, SRB, read-out: IC50 (μM) MM96L
[14] = Table 7, IC50 (NFF)/IC50 (MM96L)
[15] = Table 8, 24 hours with compound, further growth, read-out: IC50 (μM) NFF
[16] = Table 8, 24 hours with compound, further growth, SRB, read-out: IC50 (μM) MM96
[17] = Table 8, IC50 (NFF)/IC50 (MM96L)
[18] = NFF normal fibroblasts, 24 h with compound, further 72 h growth, read-out: IC50 (uM) NFF
[19] = MM96L melanoma, 24 h with compound, further 72 h growth, SRB, read-out: IC50 (uM) MM96L

CN(C)c1ccc(C(=O)N[C@@H](CCCCCC(=O)NO)C(=O)NCc2ccccn2)cc1 [Example 127]
IC50 [1, 2]: 33 ± 5 µM
IC50 (MM96L melanoma cells; [3]): 3.6 ± 0.4 µM
SI (Selectivity Index = IC50 (NFF)/IC50 (MM96L)) (MM96L melanoma cells): 9.1

O=C(CCCSC[C@H](NC(=O)Cc1ccc(-c2ccccc2)cc1)C(=O)NCc1ccccc1)NO [Example 42]
IC50 [1, 4]: 21 ± 2 µM
IC50 (MM96L melanoma cells; [5]): 12 ± 3 µM
Selectivity (MM96L melanoma cells; [6]): 1.8

O=C(CCCCC[C@H](NC(=O)OCc1ccccc1)C(=O)NCc1ccncc1)NO [Example 159]
IC50 [1, 2]: 23.3 µM
IC50 (MM96L melanoma cells; [3]): 4.32 µM
SI (Selectivity Index = IC50 (NFF)/IC50 (MM96L)) (MM96L melanoma cells): 5.4

O=C(CCCCC[C@H](NC(=O)c1ccc(Br)cc1)C(=O)NCc1ccccc1)NO [Example 136]
IC50 [1, 2]: 5.86 µM
IC50 (MM96L melanoma cells; [3]): 1.99 µM
SI (Selectivity Index = IC50 (NFF)/IC50 (MM96L)) (MM96L melanoma cells): 4.2

CN(C)c1ccc(C(=O)N[C@@H](CSCCCC(=O)NO)C(=O)NC23CC4CC(CC(C4)C2)C3)cc1 [Example 92]
IC50 [1, 7]: 7.1 ± 0.5 µM
IC50 (MM96L melanoma cells; [8]): 1.48 ± 0.08 µM
Selectivity (MM96L melanoma cells; [9]): 4.8

CN(C)c1ccc(C(=O)N[C@@H](CSCCCC(=O)NO)C(=O)NCCc2ccccc2Br)cc1 [Example 84]
IC50 [1, 10]: 3.3 ± 0.3 µM
IC50 (MM96L melanoma cells; [11]): 0.7 ± 0.2 µM
Selectivity (MM96L melanoma cells; [9]): 4.7

O=C(/C=C/c1ccccc1)N[C@@H](CSCCCC(=O)NO)C(=O)Nc1cccnc1 [Example 98]
IC50 [1, 12]: 6.4 ± 0.8 µM
IC50 (MM96L melanoma cells; [13]): 1.2 ± 0.3 µM
Selectivity (MM96L melanoma cells; [14]): 5.2

CN(C)c1ccc(C(=O)N[C@@H](CSCCCC(=O)NO)C(=O)NCc2ccc(C(=O)NCc3ccccc3)cc2)cc1 [Example 106]
IC50 [1, 15]: 11.8 µM
IC50 (MM96L melanoma cells; [16]): 1.18 µM
Selectivity (MM96L melanoma cells; [17]): 10.0

CN(C)c1ccc(C(=O)N[C@@H](CSCCCC(=O)NO)C(=O)NCCc2ccccc2)cc1 [Example 83]
IC50 [1, 10]: 2.7 ± 0.3 µM
IC50 (MM96L melanoma cells; [11]): 1.4 ± 0.1 µM
Selectivity (MM96L melanoma cells; [9]): 1.9

CN(C)c1ccc(C(=O)N[C@@H](CSCCCC(=O)NO)C(=O)NCc2ccc(C(=O)Nc3ccc4ncccc4c3)cc2)cc1 [Example 116]
IC50 [1, 15]: 5.57 µM
IC50 (MM96L melanoma cells; [16]): 2.23 µM
Selectivity (MM96L melanoma cells; [17]): 2.5

COc1ccc(CCC(=O)N[C@@H](CSCCCC(=O)NO)C(=O)NCc2ccccc2)cc1 [Example 47]
IC50 [1, 4]: 16 ± 1 µM
IC50 (MM96L melanoma cells; [5]): 8 ± 1 µM
Selectivity (MM96L melanoma cells; [6]): 2.0

CN(C)c1ccc(C(=O)N[C@@H](CSCCCC(=O)NO)C(=O)NCc2ccc(C(=O)Nc3cccc4cccnc34)cc2)cc1 [Example 115]
IC50 [1, 15]: 1.35 µM
IC50 (MM96L melanoma cells; [16]): 0.56 µM
Selectivity (MM96L melanoma cells; [17]): 2.4

CN(C)c1ccc(C(=O)N[C@@H](CSCCCC(=O)NO)C(=O)NCc2ccncc2)cc1 [Example 80]
IC50 [1, 7]: 14 ± 1 µM
IC50 (MM96L melanoma cells; [8]): 2.2 ± 0.3 µM
Selectivity (MM96L melanoma cells; [9]): 6.2

O=C(CCCSC[C@H](NC(=O)c1ccc2ccccc2c1)C(=O)NCc1ccccc1)NO [Example 38]
IC50 [1, 4]: 1.14 ± 0.05 µM
IC50 (MM96L melanoma cells; [5]): 0.6 ± 0.2 µM
Selectivity (MM96L melanoma cells; [6]): 1.9

CN(C)c1ccc(C(=O)N[C@@H](CSCCCC(=O)NO)C(=O)Nc2cccc3scnc23)cc1 [Example 69]
IC50 [1, 7]: 3.3 ± 0.3 µM
IC50 (MM96L melanoma cells; [8]): 1.3 ± 0.1 µM
Selectivity (MM96L melanoma cells; [9]): 2.5

O=C(/C=C/c1ccccc1)N[C@@H](CCCCCC(=O)NO)C(=O)NCc1ccccc1 [Example 138]
IC50 [1, 18]: 1.15 µM
IC50 (MM96L melanoma cells; [19]): 0.252 µM
SI (Selectivity Index = IC50 (NFF)/IC50 (MM96L)) (MM96L melanoma cells): 4.5

CN(C)c1ccc(NC(=O)[C@H](CCCCCC(=O)NO)NC(=O)c2ccc(C(F)(F)F)cc2)cc1 [Example 152]
IC50 [1, 2]: 0.404 µM
IC50 (MM96L melanoma cells; [3]): 0.222 µM
SI (Selectivity Index = IC50 (NFF)/IC50 (MM96L)) (MM96L melanoma cells): 1.8

O=C(/C=C/c1ccccc1)N[C@@H](CSCCCC(=O)NO)C(=O)NCc1cccnc1 [Example 101]
IC50 [1, 12]: 13.2 ± 0.7 µM
IC50 (MM96L melanoma cells; [13]): 0.9 ± 0.2 µM
Selectivity (MM96L melanoma cells; [14]): 15.1

O=C(/C=C/c1ccccc1)N[C@@H](CCCCCC(=O)NO)C(=O)NCc1ccccc1 [Example 153]
IC50 [1, 18]: 0.99 µM
IC50 (MM96L melanoma cells; [19]): 0.731 µM
SI (Selectivity Index = IC50 (NFF)/IC50 (MM96L)) (MM96L melanoma cells): 1.4

O=C(CCCSC[C@H](NC(=O)C1CC1)C(=O)NCc1ccccc1)NO [Example 55]
IC50 [1, 4]: > 100 µM
IC50 (MM96L melanoma cells; [5]): 21 ± 2 µM
Selectivity (MM96L melanoma cells; [6]): >5

O=C(CCCCC[C@H](NC(=O)CCCc1c[nH]c2ccccc12)C(=O)NCc1ccccc1)NO [Example 163]
IC50 [1, 2]: 7.03 µM
IC50 (MM96L melanoma cells; [3]): 1.84 µM
SI (Selectivity Index = IC50 (NFF)/IC50 (MM96L)) (MM96L melanoma cells): 3.8

CN(C)c1ccc(C(=O)N[C@@H](CSCCCC(=O)NO)C(=O)Nc2cccc3cccnc23)cc1 [Example 68]
IC50 [1, 7]: 3 ± 0.3 µM
IC50 (MM96L melanoma cells; [8]): 0.61 ± 0.08 µM
Selectivity (MM96L melanoma cells; [9]): 5.0

O=C(CCCCC[C@H](NC(=O)OCc1ccccc1)C(=O)Nc1ccc(-c2ccccc2)cc1)NO [Example 160]
IC50 [1, 2]: 2.21 µM
IC50 (MM96L melanoma cells; [3]): 0.331 µM
IC50 (MM96L melanoma cells; Homo sapiens, MM96L, most preferred compounds, exemplary examples, read-out: potency of IC50 against the MM96 melanoma cells): ≤ 0.5 µM
SI (Selectivity Index = IC50 (NFF)/IC50 (MM96L)) (MM96L melanoma cells): 6.7

O=C(CCCCCC(NC(=O)OCc1ccccc1)C(=O)NC1CCCc2ccccc21)NO (stereo not shown) [Example 156]
IC50 [1, 18]: 1.71 µM
IC50 (MM96L melanoma cells; [19]): 1.71 µM
SI (Selectivity Index = IC50 (NFF)/IC50 (MM96L)) (MM96L melanoma cells): 1

CN(C)c1ccc(NC(=O)c2ccc(CNC(=O)[C@H](CSCCCC(=O)NO)NC(=O)c3ccc(N(C)C)cc3)cc2)cc1 [Example 109]
IC50 [1, 15]: 2.42 µM
IC50 (MM96L melanoma cells; [16]): 0.54 µM
Selectivity (MM96L melanoma cells; [17]): 4.5

O=C(CCCSC[C@H](NC(=O)C1CCC(=O)N1)C(=O)NCc1ccccc1)NO (stereo partly shown) [Example 56]
IC50 [1, 4]: 9.6 ± 0.9 µM
IC50 (MM96L melanoma cells; [5]): 4.4 ± 0.3 µM
Selectivity (MM96L melanoma cells; [6]): 2.2

O=C(CCCCC[C@H](NC(=O)c1cc2c(Br)cccc2[nH]1)C(=O)NCc1ccccc1)NO [Example 165]
IC50 [1, 2]: 1.94 µM
IC50 (MM96L melanoma cells; [3]): 0.485 µM
SI (Selectivity Index = IC50 (NFF)/IC50 (MM96L)) (MM96L melanoma cells): 4.0

CN(C)c1ccc(C(=O)N[C@@H](CSCCCC(=O)NO)C(=O)NCc2ccc(C(=O)Nc3ccccc3)cc2)cc1 [Example 121]
IC50 [1, 15]: 11.6 µM
IC50 (MM96L melanoma cells; [16]): 1.41 µM
Selectivity (MM96L melanoma cells; [17]): 8.2

CC(C)CNC(=O)c1ccc(CNC(=O)[C@H](CSCCCC(=O)NO)NC(=O)c2ccc(N(C)C)cc2)cc1 [Example 104]
IC50 [1, 15]: 8.08 µM
IC50 (MM96L melanoma cells; [16]): 1.62 µM
Selectivity (MM96L melanoma cells; [17]): 5.0

CN(C)c1ccc(C(=O)N[C@@H](CSCCCC(=O)NO)C(=O)NCc2cccnc2)cc1 [Example 81]
IC50 [1, 7]: 8.8 ± 0.5 µM
IC50 (MM96L melanoma cells; [8]): 1.49 ± 0.09 µM
Selectivity (MM96L melanoma cells; [9]): 5.9

CC(C)CCNC(=O)C(CCCCCC(=O)NO)NC(=O)c1ccco1 (racemic) [Example 144]
IC50 [1, 18]: 4.4 ± 0.5 µM
IC50 (MM96L melanoma cells; [19]): 1.5 ± 0.2 µM
SI (Selectivity Index = IC50 (NFF)/IC50 (MM96L)) (MM96L melanoma cells): 2.9
